Experiment [1] deals with HCT116 human colorectal carcinoma cells with H1047R mutation. Kind of experiment: HCT116 H1047/− subcutaneous xenograft, tumor growth inhibition. Format: in vivo, BALB/c scid mice. To be noted: Day 48 (Treatment Day 36), compared to the IgG4 control; DKN-01 5 mg/kg IP twice weekly, BYL719 25 mg/kg PO QD. The source says:
(§1) A study was initiated to evaluate growth of a human colorectal cancer cell line, HCT116, with and without the PI3KCA H1047R mutation in mice treated with DKN-01, the PI3KCA inhibitor BYL719 (Alpelisib), or the combination. Female BALB/c scid mice were inoculated subcutaneously with HCT116 human colon carcinoma cells with or without the H1047R mutation on Day 0. On Day 17, when tumors volumes had reached 50-75 mm3, animals were randomized into treatment groups and dosing was initiated.
(§2) Female BALB/c scid mice (10 per group) were inoculated subcutaneously in the right flank with 10×10^6 HCT116 human colorectal carcinoma cells on Day 0. Human IgG4 control (10 mg/kg) and DKN-01 (5 mg/kg) were administered intraperitoneally (IP) twice weekly. BYL719 (25 mg/kg) was administered orally (PO) every day (QD) for the duration of the study. Tumor measurements were performed every 3-4 days with calipers and volume (V) was calculated using the following formula: V=½(length [mm]×width [mm]^2). Data are shown as mean tumor volumes (MTV)+SEM. #, p<0.05. Percent TGI =[(MTV Control)−(MTV Treated)]/(MTV Control). Comparisons between groups at study termination were performed using a one-way repeated measures ANOVA with Tukey's multiple comparisons test.

For experiment [2], the system named is HCT116 human colorectal carcinoma cells without the PIK3CA H1047R mutation. Kind of experiment: HCT116 PIK3CA+/− subcutaneous xenograft, tumor growth inhibition. Format: in vivo, BALB/c scid mice. Conditions: Day 52 (Treatment Day 36), compared to the IgG4 control; DKN-01 5 mg/kg IP twice weekly, BYL719 25 mg/kg PO QD.
Text: as §1, §2

`Cc1nc(NC(=O)N2CCC[C@H]2C(N)=O)sc1-c1ccnc(C(C)(C)C(F)(F)F)c1` [BYL719, Alpelisib]: the “Tumor Growth Inhibition (TGI)” value in experiment [1] is listed as 56%; in experiment [2] it was 50%.

For the origin of these results see US20260077043A1, “COMBINATION THERAPY” (LEAP THERAPEUTICS, INC., priority 2022, published 2026).
